How the values were obtained:
Format in all cases: biochemical
[1] = biological target: T1, PDE4B: The catalytic domain of human PDE4B from S152-S528 (Homo sapiens, UniProt Q07343); assay: PDE4 IC50 determination by Scintillation Proximity Assay, PDE4B; details: Table 1B, Formula I compounds; read-out: IC50 PDE4B
T1 construct: His6 (N); thrombin cleavage site (N); made in house; host or cells: E. coli
Summary of the method: (§1)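 Hydrolysis of [^3H]cAMP measured by SPA with yttrium silicate beads, which bind the [^3H]AMP product strongly and cAMP weakly. Enzyme at 80 ng/ml for PDE4B, 4 ng/ml for PDE4D; 30 min at 30°.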

[2] = biological target: T2, PDE4D (Homo sapiens, UniProt Q08499); assay: PDE4 IC50 determination by Scintillation Proximity Assay, PDE4D; details: Table 1B, Formula I compounds; read-out: IC50 PDE4D
T2 construct: PDE4D: The catalytic domain of human PDE4B from S3 16-V692; His6 (N); thrombin cleavage site (N); made in house; host or cells: E. coli
Summary of the method: as §1

[3] = biological target: T3, full-length human PDE4B2 isozyme (Homo sapiens, UniProt Q07343); assay: PDE4 IC50 determination by Scintillation Proximity Assay, PDE4B2; details: Table 1B, Formula I compounds; read-out: IC50 PDE4B2
T3 construct: The full-length human PDE4B2 isozyme; His6 (N); TEV cleavage site (N); made in house; host or cells: baculovirus infected insect cells (unpurified lysate)
Procedure: (§2) IC50s were determined by Scintillation Proximity Assay (SPA). The principle of the assay is based on the fact that cAMP, the PDE4 substrate, binds weakly to Yittrium Silicate SPA beads, whereas AMP, the product of PDE4 hydrolysis binds strongly. Thus, the extent of PDE4 hydrolysis of a sample of [^3H]cAMP can be measured because only the
(§3) [^3H]AMP produced by PDE4 hydrolysis will bind to the SPA beads and produce a scintillation signal.
(§4) PDE4 enzymes used for IC50 assays were:
PDE4B2: The full-length human PDE4B2 isozyme with an N-terminal His6 tag (SEQ ID NO: 18) and TEV cleavage site expressed in baculovirus infected insect cells. The enzyme was not purified from the cell lysates, so enzyme concentrations were not determined. Enzyme was stored in 50% glycerol at −20°.
(§5) Compounds tested (see Tables 3B, 4B and 5A for compounds and results) were 3-fold serially diluted 11 times in DMSO from a starting concentration of 4 mM or 40 μM, depending on compound potency. 1 μl of each dilution was transferred into duplicate wells of a white polystyrene 384-well assay plate (Coming #3705). In addition to the compound dilutions, each assay plate contained control wells with 1 μl of DMSO (to define 0% enzyme inhibition) or 1 μl of 200 μM roflumilast (to define 100% enzyme inhibition). Using a Beckman FX robot, 10 μl of [^3H] cAMP (Amersham TRK559) at 2 mCi/ml in assay buffer (50 mM Tris, pH 7.5; 8.3 mM MgCl; 1.7 mM EGTA; 0.01% BSA) was transferred to each assay well. Next, 10 μl of PDE4 enzyme in assay buffer was added and the plates were shaken for 30 s. at 1000 rpm to start the cAMP hydrolysis reaction. The concentrations of enzyme used were: PDE4B, 80 ng/ml; PDE4D, 4 ng/ml; PDE4B2, 2.5 μl of 50% glycerol stock/ml; PDE4D5 0.083 μl of 50% glycerol stock/ml. Assay plates were covered and incubated for 30 min. at 30°. Reactions were stopped by robotic addition of 10 μl of 5 mg/ml SPA beads (Amersham RPNQ0013) in 18 mM ZnSO4. The assay plates were covered with clear plastic film, centrifuged for 1 min. at 1000 RPM to settle the SPA beads, and counted using a Wallac TriLux scintillation counter. IC50's were calculated from the raw assay data by non-linear regression curve fitting using the Assay Explorer software package from MDL.

[4] = biological target: T4, full-length human PDE4D5 isozyme (Homo sapiens, UniProt Q08499); assay: PDE4 IC50 determination by Scintillation Proximity Assay, PDE4D5; details: Table 1B, Formula I compounds; read-out: IC50 PDE4D5
T4 construct: The full-length human PDE4D5 isozyme; His6 (N); TEV cleavage site (N); made in house; host or cells: baculovirus infected insect cells (unpurified lysate)
Procedure: as §2, §3, §4
PDE4D5: The full-length human PDE4D5 isozyme with an N-terminal His6 tag (SEQ ID NO: 18) and TEV cleavage site expressed in baculovirus infected insect cells. The enzyme was not purified from the cell lysates, so enzyme concentrations were not determined. Enzyme was stored in 50% glycerol at −20°.
as §5

T1 sequence (Q07343 with tags, fused parts or gaps): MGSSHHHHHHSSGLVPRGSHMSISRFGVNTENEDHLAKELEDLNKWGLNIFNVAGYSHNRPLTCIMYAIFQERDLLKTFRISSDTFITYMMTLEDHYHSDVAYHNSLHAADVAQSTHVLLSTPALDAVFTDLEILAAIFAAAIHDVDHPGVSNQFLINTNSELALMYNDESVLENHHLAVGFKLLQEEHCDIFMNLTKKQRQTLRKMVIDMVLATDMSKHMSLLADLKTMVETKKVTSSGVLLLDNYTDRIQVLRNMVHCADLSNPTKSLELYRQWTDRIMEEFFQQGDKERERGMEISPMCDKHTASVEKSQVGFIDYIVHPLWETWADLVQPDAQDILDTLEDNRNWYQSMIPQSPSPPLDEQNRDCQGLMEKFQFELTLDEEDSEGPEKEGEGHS
T3 sequence (Q07343 1-564 isoform Q07343-2): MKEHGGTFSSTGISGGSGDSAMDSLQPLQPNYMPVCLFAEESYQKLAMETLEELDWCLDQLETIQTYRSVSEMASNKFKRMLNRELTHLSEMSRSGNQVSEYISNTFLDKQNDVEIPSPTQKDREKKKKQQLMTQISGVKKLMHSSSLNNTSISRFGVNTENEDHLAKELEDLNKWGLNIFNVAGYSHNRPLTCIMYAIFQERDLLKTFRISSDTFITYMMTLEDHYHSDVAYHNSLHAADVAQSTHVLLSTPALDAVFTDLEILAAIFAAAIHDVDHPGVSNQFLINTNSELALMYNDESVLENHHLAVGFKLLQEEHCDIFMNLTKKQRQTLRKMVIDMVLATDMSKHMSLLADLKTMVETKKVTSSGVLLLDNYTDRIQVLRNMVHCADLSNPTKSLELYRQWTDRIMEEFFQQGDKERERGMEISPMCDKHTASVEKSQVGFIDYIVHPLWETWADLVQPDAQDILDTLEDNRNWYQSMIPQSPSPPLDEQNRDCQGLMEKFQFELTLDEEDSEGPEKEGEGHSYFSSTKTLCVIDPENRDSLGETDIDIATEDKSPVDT
T2 sequence (Q08499 380-756): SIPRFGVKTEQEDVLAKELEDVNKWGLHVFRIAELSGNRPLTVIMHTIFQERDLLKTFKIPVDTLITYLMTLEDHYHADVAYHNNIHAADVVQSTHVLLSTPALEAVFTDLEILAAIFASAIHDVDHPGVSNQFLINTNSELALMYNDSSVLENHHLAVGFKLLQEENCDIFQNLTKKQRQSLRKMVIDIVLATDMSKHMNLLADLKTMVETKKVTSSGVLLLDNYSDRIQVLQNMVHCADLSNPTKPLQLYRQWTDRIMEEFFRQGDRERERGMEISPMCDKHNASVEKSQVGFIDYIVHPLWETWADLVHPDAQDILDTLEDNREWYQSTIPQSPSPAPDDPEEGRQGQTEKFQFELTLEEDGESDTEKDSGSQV
T4 sequence (Q08499 1-745 isoform Q08499-6): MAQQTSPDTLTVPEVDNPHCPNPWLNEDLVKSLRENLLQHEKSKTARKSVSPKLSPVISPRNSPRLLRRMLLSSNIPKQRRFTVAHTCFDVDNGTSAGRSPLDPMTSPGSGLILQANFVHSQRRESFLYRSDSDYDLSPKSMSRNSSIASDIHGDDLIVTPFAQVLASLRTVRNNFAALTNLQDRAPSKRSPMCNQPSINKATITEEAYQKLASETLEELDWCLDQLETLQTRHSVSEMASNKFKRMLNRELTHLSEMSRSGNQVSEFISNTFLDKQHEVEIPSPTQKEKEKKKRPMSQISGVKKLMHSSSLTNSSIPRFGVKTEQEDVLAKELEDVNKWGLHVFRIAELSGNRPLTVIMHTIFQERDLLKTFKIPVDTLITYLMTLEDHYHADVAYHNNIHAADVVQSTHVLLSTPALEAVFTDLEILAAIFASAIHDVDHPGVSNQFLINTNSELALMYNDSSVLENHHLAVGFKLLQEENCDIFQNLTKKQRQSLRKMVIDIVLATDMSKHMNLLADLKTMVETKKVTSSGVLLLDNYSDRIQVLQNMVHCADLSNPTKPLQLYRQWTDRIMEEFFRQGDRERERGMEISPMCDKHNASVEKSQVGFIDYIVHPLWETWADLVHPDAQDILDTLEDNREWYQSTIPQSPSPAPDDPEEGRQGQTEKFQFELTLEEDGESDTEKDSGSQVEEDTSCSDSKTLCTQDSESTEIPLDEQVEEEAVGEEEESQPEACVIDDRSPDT

SMILES	IC50 [1] [µM]	IC50 [2] [µM]	IC50 [3] [µM]	IC50 [4] [µM]
Cc1onc(-c2ccccc2)c1C(=O)c1sc(NC2CCCC2)c(C#N)c1N [Compound 1-61, 4-Amino-2-cyclopentylamino-5-(5-methyl-3-phenyl-isoxazole-4-carbonyl)-thiophene-3-carbonitrile]	< 10	< 10	< 10	< 10
N#Cc1c(NCCN2CCCCC2)sc(C(=O)c2cc(-c3ccccc3)no2)c1N [Compound 1-62, 4-Amino-5-(3-phenyl-isoxazole-5-carbonyl)-2-(2-piperidin-1-yl-ethylamino)-thiophene-3-carbonitrile]	> 10	> 10	> 10	> 10
N#Cc1c(NC2CCCC2)sc(C(=O)c2ccccn2)c1N [Compound 1-66, 4-Amino-2-cyclopentylamino-5-(pyridine-2-carbonyl)-thiophene-3-carbontrile]	< 10	< 10	< 10	< 10
N#Cc1c(Nc2ccccc2F)sc(C(=O)c2ccc(-c3ccccn3)s2)c1N [Compound 1-67, 4-Amino-2-(2-fluoro-phenylamino)-5-(5-pyridin-2-yl-thiophene-2-carbonyl)-thiophene-3-carbonitrile]	< 10	< 10	< 10	< 10
COc1ccc(Nc2sc(C(=O)c3ccc(-c4ccccn4)s3)c(N)c2C#N)cc1 [Compound 1-68, 4-Amino-2-(4-methoxy-phenylamino)-5-(5-pyridin-2-yl-thiophene-2-carbonyl)-thiophene-3-carbonitrile]	< 10	< 10	> 10	> 10
N#Cc1cccc(Nc2sc(C(=O)c3ccc(-c4ccccn4)s3)c(N)c2C#N)c1 [Compound 1-69, 4-Amino-2-(3-cyano-phenylamino)-5-(5-pyridin-2-yl-thiophene-2-carbonyl)-thiophene-3-carbonitrile]	< 10	< 10	< 10	< 10
N#Cc1c(Nc2ccc3c(c2)CCC3)sc(C(=O)c2ccc(-c3ccccn3)s2)c1N [Compound 1-71, 4-Amino-2-(indan-5-ylamino)-5-(5-pyridin-2-yl-thiophene-2-carbonyl)-thiophene-3-carbonitrile]	< 10	< 10	< 10	> 10
COC(=O)C(CCSC)Nc1sc(C(=O)c2ccc(-c3ccccn3)s2)c(N)c1C#N (stereo not drawn) [Compound 1-74, 2-[4-Amino-3-cyano-5-(5-pyridin-2-yl-thiophene-2-carbonyl)-thiophen-2-ylamino]-4-methylsulfanyl-butyric acid methyl ester]	< 10	< 10	< 10	< 10
COc1ccc(CNc2sc(C(=O)c3ccc(-c4ccccn4)s3)c(N)c2C#N)cc1OC [Compound 1-75, 4-Amino-2-(3,4-dimethoxy-benzylamino)-5-(5-pyridin-2-yl-thiophene-2-carbonyl)-thiophene-3-carbonitrile]	< 10	< 10	< 10	< 10
N#Cc1c(Nc2ccc(C(=O)NC3CCOC3=O)cc2)sc(C(=O)c2ccc(-c3ccccn3)s2)c1N (stereo not drawn) [Compound 1-77, 4-[4-Amino-3-cyano-5-(5-pyridin-2-yl-thiophene-2-carbonyl)-thiophen-2-ylamino]-N-(2-oxo-tetrahydro-furan-3-yl)-benzamide]	< 10	< 10	< 10	< 10
N#Cc1c(NC2CCCC2)sc(C(=O)c2ccc(-c3ccccn3)s2)c1N [Compound 1-78, 4-Amino-2-cyclopentylamino-5-(5-pyridin-2-yl-thiophene-2-carbonyl)-thiophene-3-carbonitrile]	< 10	< 10	< 10	< 10
CCc1ccccc1Nc1sc(C(=O)c2ccc(-c3ccccn3)s2)c(N)c1C#N [Compound 1-81, 4-Amino-2-(2-ethyl-phenylamino)-5-(5-pyridin-2-yl-thiophene-2-carbonyl)-thiophene-3-carbonitrile]	< 10	< 10	> 10	> 10
N#Cc1c(NCCN2CCCCC2)sc(C(=O)c2cc(-c3ccc(Cl)cc3Cl)no2)c1N [Compound 1-82, 4-Amino-5-[3-(2,4-dichloro-phenyl)-isoxazole-5-carbonyl]-2-(2-piperidin-1-yl-ethylamino)-thiophene-3-carbonitrile]	> 10	> 10	> 10	> 10
N#Cc1c(NCCN2CCCCC2)sc(C(=O)c2cc(-c3ccc(Cl)c(Cl)c3)no2)c1N [Compound 1-83, 4-Amino-5-[3-(3,4-dichloro-phenyl)-isoxazole-5-carbonyl]-2-(2-piperidin-1-yl-ethylamino)-thiophene-3-carbonitrile]	> 10	> 10	> 10	> 10
COc1ccc(Nc2sc(C(=O)c3ccc(C)cc3C)c(N)c2C#N)cc1 [Compound 1-85]	< 10	< 10	< 10	< 10
Cc1ccc(C(=O)c2sc(NC(=O)c3ccccc3C)c(C#N)c2N)c(C)c1 [Compound 1-86, N-[4-Amino-3-cyano-5-(2,4-dimethyl-benzoyl)-thiophen-2-yl]-2-methyl-benzamide]	< 10	< 10	> 10	> 10
Cc1ccc(C(=O)c2sc(NC3CCCC3)c(C#N)c2N)c(C)c1 [Compound 1-90, 4-Amino-2-cyclopentylamino-5-(2,4-dimethyl-benzoyl)-thiophene-3-carbonitrile]	< 10	< 10	< 10	< 10
CCc1ccccc1Nc1sc(C(=O)c2cc(OC)ccc2OC)c(N)c1C#N [Compound 1-99, 4-Amino-5-(2,5-dimethoxy-benzoyl)-2-(2-ethyl-phenylamino)-thiophene-3-carbonitrile]	< 10	< 10	< 10	< 10
Cc1c(C(=O)c2sc(Nc3cccc(C#N)c3)c(C#N)c2N)cnn1-c1ccccc1 [Compound 1-125, 4-Amino-2-(3-cyano-phenylamino)-5-(5-methyl-1-phenyl-1H-pyrazole-4-carbonyl)-thiophene-3-carbonitrile]	< 10	< 10	< 10	< 10
COc1ccc(Nc2sc(C(=O)c3c(-c4ccccc4)noc3C)c(N)c2C#N)cc1 [Compound 1-129, 4-Amino-2-(4-methoxy-phenylamino)-5-(5-methyl-3-phenyl-isoxazole-4-carbonyl)-thiophene-3-carbonitrile]	< 10	< 10	< 10	< 10
COC(=O)c1ccccc1Nc1sc(C(=O)c2c(-c3ccccc3)noc2C)c(N)c1C#N [Compound 1-130, 2-[4-Amino-3-cyano-5-(5-methyl-3-phenyl-isoxazole-4-carbonyl)-thiophen-2-ylamino]-benzoic acid methyl ester]	< 10	< 10	< 10	< 10
